# From patent publication US6346390B1, “Receptor derived peptides involved in modulation of response to ligand binding” (Receptron, Inc., priority 1996, dated 2002)
# Legend:
# [1] = test system: rat adipose cells; assay: Glucose transport in adipose cells; assay type: cell-based
# Procedure: The biological activity of the peptides were measured by their effect on glucose uptake in rat adipose cells as described (Stagsted et al. (1991) J. Biol. Chem. 266:12844-12847). Briefly, rat adipose cells were obtained from epididymal fat pads and suspended in Krebs-Ringer HEPES buffer (KRH) with 5% bovine serum albumin at a lipocrit of 10% (final). […] Most of the peptides were not tested at higher concentrations than 30 μM.
# [2] = target: T1, human insulin receptor (Homo sapiens, UniProt P06213); assay: Insulin receptor internalization in transfected HeLa cells; assay type: cell-based; conditions: for effect on insulin receptor internalization (in words): transfected cells, 10 μM peptide
# T1 construct: expressed in transfected cells; host or cells: HeLa cells, electroporated; pCR3 expression vector (Invitrogen, catalog no. K3000-01)
# Procedure: Insulin Receptor modification and expression. […] K3000-01) was transfected by electroporation into HeLa cells. Methods of electroporation are described in Boggs et al. (1986) Ex. Hematol. 149:988-994. In the transfected cells the receptors show insulin dependent internalization.
# Receptor internalization was performed essentially as described in Stagsted et al. (1990) Cell 62:297-307. […] The cells were then diluted with 50 μl of KRHB (pH7.2) (no acid wash) or 50 μl of KRHB (pH 2.0) (acid wash) and incubated on ice for 5 min. The cells were finally harvested by centrifugation on top of silicone oil, and both free and cell-associated radioactivity was measured.
substance,measurement,setting,value
GNEQSFRVDLRTLLRYAGGGNEQSFRVDLRTLLRYA [DS-A85],enhancement of glucose uptake,[1]; insulin + 10 μM peptide (insulin alone 14±3 fold),22±4 fold
TWLGRQGPEGPSSIPPGTLTTLW [GLUT4pep],per cent internalized receptor,"[2]; in the presence of 10 μM peptide, time not stated, in the absence of peptide 64±7",6±9 per cent
same,effect on insulin receptor internalization (in words),[2],does not affect insulin receptor internalization
"KTDSQILKELEESSFRKTFEDYLH [pepIR, human insulin receptor derived peptide]",effect on insulin receptor internalization (in words),[2],inhibits receptor internalization to the same extent as DS-A85
same,effect on glucose uptake (in words),[1]; at maximal insulin stimulation,did not significantly affect glucose uptake
insulin,enhancement of glucose uptake,[1]; 10 nM insulin alone,12±4 fold
same,enhancement of glucose uptake,[1]; 10 μM insulin alone,14±3 fold
